Test results published in PubChem BioAssay (NCI).
Where “and” joins values, the source holds several entries; their conditions need not be identical. Equal entries are not always repeated.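 These data come from cells grown in 96-well plates and exposed to compound for 48 hours at five concentrations. The concentration for 50% growth inhibition is given as GI50. The concentration for full growth arrest is given as TGI.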

How the values were obtained:
Experiment in all cases: DTP human tumour cell line panel, 48 h
HOP-92 NSCLC = test system: HOP-92 NSCLC
MCF7 breast = test system: MCF7 breast
NCI-H460 lung = test system: NCI-H460 lung
NCI-H522 lung = test system: NCI-H522 lung
OVCAR-4 ovarian = test system: OVCAR-4 ovarian
RXF 393 renal = test system: RXF 393 renal
SK-MEL-2 melanoma = test system: SK-MEL-2 melanoma
SK-MEL-5 melanoma = test system: SK-MEL-5 melanoma
CCRF-CEM leukemia = test system: CCRF-CEM leukemia
MALME-3M melanoma = test system: MALME-3M melanoma

SMILES | GI50 (HOP-92 NSCLC) | TGI (HOP-92 NSCLC) | GI50 (MCF7 breast) [µM] | TGI (MCF7 breast) [µM] | GI50 (NCI-H460 lung) [µM] | TGI (NCI-H460 lung) | GI50 (NCI-H522 lung) [µM] | TGI (NCI-H522 lung) [µM] | GI50 (OVCAR-4 ovarian) | TGI (OVCAR-4 ovarian) [µM] | GI50 (RXF 393 renal) | TGI (RXF 393 renal) | GI50 (SK-MEL-2 melanoma) | TGI (SK-MEL-2 melanoma) | GI50 (SK-MEL-5 melanoma) | TGI (SK-MEL-5 melanoma) | GI50 (CCRF-CEM leukemia) [µM] | TGI (CCRF-CEM leukemia) | GI50 (MALME-3M melanoma) | TGI (MALME-3M melanoma)
COC(=O)[C@]1(C)CCC[C@@]2(C)C3=C(CC[C@H]12)C[C@@H](CC(OC(C)=O)OC(C)=O)[C@@H](C)C3 | 9.95 µM | 19.9 µM | 7.99 | 18.5 | 9.2 | 25.3 µM | > 28 | > 50 | 14.4 µM | 47.4 | 7.03 µM | 16.1 µM | 15.9 µM | > 37.4 µM | 8.4 µM | 15.6 µM |  |  |  | 
CC1=CC2(C)/C=C(C)/C=C\CC(O)/C=C3/C=CC(=C4C(=O)OC2(CC1C)C4=O)OC3 (stereo unspecified) | 0.524 µM | 1.54 µM | 2.11 | 20.7 | 3.84 | 15.7 µM | 2.46 | 8.55 | 1.89 µM | 4.91 |  |  | 2.61 µM | 6.51 µM | 3.07 µM | 11.6 µM | 0.673 | 7.95 µM | 2.14 µM | 5.13 µM
NC(=O)NNC/C(Cl)=C(\Cl)C(=O)O |  |  |  |  |  | > 100 µM |  | > 100 |  | > 100 |  | > 100 µM |  | > 100 µM |  | > 100 µM |  | > 100 µM |  | > 100 µM
C/C(=N\N=C(N)N)C(CN1CCOCC1)C(c1ccccc1)c1c(O)c2ccccc2oc1=O (stereo unspecified) |  | 96.9 µM |  |  |  | > 100 µM |  | > 100 |  | > 100 |  | > 100 µM |  | > 100 µM |  | > 100 µM |  | > 100 µM |  | > 100 µM
C[C@]12CC[C@H]3[C@@H](CC[C@]4(O)C[C@@H](O)CC[C@]34C=O)[C@@]1(O)CC[C@@H]2C1=CC(=O)OC1 |  |  |  |  |  | 0.591 µM |  | 1.4 |  | 2.33 |  | 0.877 µM |  | 2.86 µM |  | 1.16 µM |  | > 100 µM |  | 2.03 µM
C=CC1=C(C)C(/C=c2\[nH]/c(=C/c3[nH]c(CC4NC(=O)C(C)/C4=C\C)c(C)c3CCC(=O)O)c(CC(=O)O)c2C)=NC1=O (stereo unspecified) |  | > 100 µM |  |  |  | > 100 µM |  | > 100 |  | > 100 |  | > 100 µM |  | > 100 µM |  |  |  | > 100 µM |  | > 100 µM
CC(=O)C(CN1C(=O)c2ccccc2C1=O)C(C)=O |  | > 100 µM |  | > 100 |  | > 100 µM |  | > 100 |  | > 100 |  | 53.8 µM |  | > 100 µM |  | > 100 µM |  |  |  | 
CCCCCCC(=O)NC1=C(N2CC2)C(=O)C(NC(=O)CCCCCC)=C(N2CC2)C1=O |  |  | 2.06 | > 100 | 0.677 | > 100 µM |  |  | 3.11 µM | > 100 | 16.3 µM | 79.5 µM | 2.52 µM | 6.14 µM |  |  | 4.32 | > 100 µM | 1.6 µM | 4.98 µM
O=C1CCC2(O)c3ccccc3C2Cc2ccccc21 (stereo unspecified) |  | > 100 µM |  |  |  | > 100 µM |  |  |  |  |  | > 100 µM |  | > 100 µM |  |  |  | > 100 µM |  | > 100 µM
O=C(Nc1nc2c(C(F)(F)F)cccc2s1)c1cc(Cl)ccc1O | 0.188 µM | 0.705 µM | 0.302 | 27.5 | 0.32 | 10.8 µM | 0.285 | 14 | 0.34 µM | > 100 | 0.257 µM | 0.772 µM |  |  | 0.193 µM | 0.446 µM | 0.328 | 12.5 µM | 0.231 µM | 0.641 µM
CC12CCC(C1)C(C)(C)C2OC(=O)c1ccccc1N (stereo unspecified) |  | 24.4 µM |  | 31.8 |  | 30.7 µM |  | 22.7 |  |  |  | 25.7 µM |  | 29.5 µM |  | 31 µM |  | 3.96 µM |  | 29.8 µM
OC1OCC(COc2cc(Cl)c(Cl)cc2Cl)OC1O (stereo unspecified) |  | 94.3 µM |  |  |  | > 100 µM |  | 70.8 |  | > 100 |  |  |  |  |  | > 100 µM |  | 89.6 µM |  | > 100 µM
COc1cc(C2c3cc4c(cc3[C@@H](NC3CCN(Cc5ccccc5)CC3)C3COC(=O)[C@H]23)OCO4)cc(OC)c1O (stereo partly specified) | 0.143 µM and 0.026 µM | 0.73 µM and 0.0934 µM |  |  | < 0.01 | 0.194 µM and 0.116 µM | 0.0827 | 0.321 | 0.209 µM and 1.12 µM |  | 0.185 µM and 0.399 µM | 0.768 µM and 0.927 µM | 1.05 µM and 0.239 µM | 2.77 µM and 0.496 µM | 0.206 µM and 0.0739 µM | 1.4 µM and 0.373 µM |  | 0.232 µM and 0.12 µM | 0.238 µM and 0.113 µM | 1.6 µM and 1.11 µM
Cc1ccc(/C=C2\CCCCC2=O)cc1 |  |  |  |  |  | > 100 µM |  |  |  | > 100 |  |  |  |  |  | > 100 µM |  | 88.8 µM |  | 
COc1ccc(N=NC2=C(O)CCC2=O)cc1 |  | > 100 µM |  |  |  | > 100 µM |  |  |  | > 100 |  | > 100 µM |  | > 100 µM |  | > 100 µM |  | > 100 µM |  | > 100 µM
CSc1ccc(N2C(=O)C3c4[nH]c5ccccc5c4C4CCC(C(C)(C)C)CC4C3C2=O)cc1 (stereo unspecified) |  | 27.1 µM |  |  |  | 34.4 µM |  | 40.4 |  | 24.9 |  | 47.1 µM |  | 43.1 µM |  | 58.5 µM |  | 23.5 µM |  | 42.9 µM
C=CCC1(CN(C)C)CC/C(=C\c2ccc3c(c2)OCO3)C1=O (stereo unspecified) |  | > 100 µM |  |  |  | > 100 µM |  | 40.2 |  | > 100 |  | > 100 µM |  | > 100 µM |  | 60.5 µM |  | 81.4 µM |  | > 100 µM
O=C(Nc1ccc(Br)c2ccccc12)c1ccc2ccccc2c1O |  |  |  | 25.8 |  | 13.1 µM |  | 6.83 |  | > 100 |  |  |  | 3 µM |  | 3.78 µM |  | > 100 µM |  | 9.3 µM
Cc1cc(-c2ccccc2)nc(Nc2cc3ccccc3[nH]2)n1 |  | > 100 µM |  |  |  | > 100 µM |  | > 100 |  | > 100 |  |  |  | > 100 µM |  | > 100 µM |  | > 100 µM |  | > 100 µM
COc1ccc(C(C2=C(O)CC(C)OC2=O)C2=C(O)CC(C)OC2=O)cc1 (stereo unspecified) |  |  |  |  |  | > 100 µM |  | > 100 |  | > 100 |  |  |  | > 100 µM |  | > 100 µM |  | > 100 µM |  | > 100 µM
CC(=O)C1=C(C)N(Cc2ccccc2)C2(O)C=CC(=O)C3=C(O)c4ccccc4C(=O)C312 (stereo unspecified) | 3.73 µM | 7.77 µM | 3.8 | 26.2 | 7.24 | 41.3 µM | 7.3 | > 100 | 4.84 µM | 44.3 | 3.27 µM | 17.5 µM | 20.8 µM | > 100 µM | 3.63 µM | 12.5 µM |  |  | 1.44 µM | 2.97 µM
